For 28 compounds, IC50 cell viability results are on record in the supplement of paper PMC12137928.

Structures are written as SMILES. Counter-ions that a name gives are not always drawn.

The subject of the assay is HCT116. Conditions: 72 h. The gist of the method: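 For IC50 and maximal efficacy, four-parameter Hill fits were used. Input values were CellTiter-Glo luminescence from HCT116 cells seeded at 250 per well in 1536-well plates, normalized to vehicle (0%) and positive control (-100%). Pattern correction followed normalization.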

Take `CC(=O)O[C@H]1C[C@@H]2CC[C@@H]3[C@H](CC[C@@]4(C)[C@H]3C[C@H]([N+]3(C)CCCCC3)[C@@H]4OC(C)=O)[C@@]2(C)C[C@@H]1[N+]1(C)CCCCC1` [Pancuronium bromide]: the IC50 cell viability by setting is: (ICRF193 0 nM) over 45.8 µM; (ICRF193 200 nM) over 45.8 µM.

For the compound `CCCC(=O)Nc1ccc(OCC(O)CNC(C)C)c(C(C)=O)c1` (stereo unspecified) [Acebutolol hydrochloride], the IC50 cell viability is, setting by setting: (ICRF193 0 nM) over 45.8 µM; (ICRF193 200 nM) over 45.8 µM.

In the case of `Cc1cc(O)c(C(=O)N[C@@H](C(=O)N[C@@H]2C(=O)N3C(C(=O)O)=C(CSc4nnnn4C)CS[C@H]23)c2ccc(O)cc2)cn1` [Cefpiramide (sodium)], the IC50 cell viability runs as follows: (ICRF193 0 nM) over 45.8 µM; (ICRF193 200 nM) over 45.8 µM.

Turning to `CN(C)C(=N)NC(=N)N` [Metformin], the IC50 cell viability was over 45.8 µM (ICRF193 0 nM) and over 45.8 µM (ICRF193 200 nM).

Consider `CC(C)NC[C@@H](O)COc1cccc2ccccc12` [Dexpropranolol], for which the IC50 cell viability (ICRF193 0 nM) was over 45.8 µM and the IC50 cell viability (ICRF193 200 nM) was over 45.8 µM.

Consider `CC(C)(C)C(=O)Oc1ccc(S(=O)(=O)Nc2ccccc2C(=O)NCC(=O)O)cc1` [Sivelestat sodium hydrate], for which the IC50 cell viability is, setting by setting: (ICRF193 0 nM) over 45.8 µM; (ICRF193 200 nM) over 45.8 µM.

For `CC(C)C(=O)c1c(C(C)C)nn2ccccc12` [Ibudilast], the IC50 cell viability is, setting by setting: (ICRF193 0 nM) over 45.8 µM; (ICRF193 200 nM) over 45.8 µM.

Take `CC(C)(C)NCC(O)c1ccc(O)c(CO)n1` (stereo unspecified) [Pirbuterol hydrochloride]: the IC50 cell viability reads like this: (ICRF193 0 nM) over 45.8 µM; (ICRF193 200 nM) over 45.8 µM.

Turning to `O=C(O)c1cc(/N=N/c2ccc(S(=O)(=O)Nc3ccccn3)cc2)ccc1O` [Sulfasalazine], the IC50 cell viability is over 45.8 µM (ICRF193 0 nM) and over 45.8 µM (ICRF193 200 nM).

As for `CC[C@H]1C[C@H]2[C@@H]3CCC4=CC(=O)CC[C@@H]4[C@H]3CC[C@]2(C)[C@H]1O` [Oxendolone], the IC50 cell viability (ICRF193 0 nM) is over 45.8 µM and the IC50 cell viability (ICRF193 200 nM) was over 45.8 µM.

On to `CC(C)(C)C(O)/C=C/c1ccc2c(c1)OCO2` (stereo unspecified) [Stiripentol], for which the IC50 cell viability by setting is: (ICRF193 0 nM) over 45.8 µM; (ICRF193 200 nM) over 45.8 µM.

With `C[C@H](CSC(=O)c1ccccc1)C(=O)N1C[C@@H](Sc2ccccc2)C[C@H]1C(=O)O` [Zofenopril], the IC50 cell viability by setting is: (ICRF193 0 nM) over 45.8 µM; (ICRF193 200 nM) over 45.8 µM.

Regarding `Cc1ccc(Cl)c(Nc2ccccc2C(=O)O)c1Cl` [Meclofenamate sodium], the IC50 cell viability (ICRF193 0 nM) is over 45.8 µM and the IC50 cell viability (ICRF193 200 nM) was over 45.8 µM.

As to `CCCCCCCCCCCCOC(=O)CS(=O)(=O)O` [SODIUM LAURYL SULFOACETATE], the IC50 cell viability (ICRF193 0 nM) is over 45.8 µM and the IC50 cell viability (ICRF193 200 nM) is over 45.8 µM.

`C=C[C@H]1CN2CC[C@H]1C[C@H]2[C@H](OC(=O)OCC)c1ccnc2ccc(OC)cc12` [QUININE ETHYL CARBONATE] showed an IC50 cell viability (ICRF193 0 nM) of over 45.8 µM and an IC50 cell viability (ICRF193 200 nM) of over 45.8 µM.

Consider `O=C(CC1NCCCC1O)Cn1cnc2cc(Br)c(Cl)cc2c1=O` (stereo unspecified) [Halofuginone hydrochloride], for which the IC50 cell viability is over 45.8 µM (ICRF193 0 nM) and over 45.8 µM (ICRF193 200 nM).

With `CC[N+](CC)(CC)CCOC(=O)C(C1CCCC1)C1CCCC1` [Diponium bromide], the IC50 cell viability by setting is: (ICRF193 0 nM) over 45.8 µM; (ICRF193 200 nM) over 45.8 µM.

Consider `O=c1[nH]c(=O)n([C@@H]2O[C@H](CO)[C@@H](O)[C@@H]2O)cc1/C=C/Br` [Bravavir], for which the IC50 cell viability was over 45.8 µM (ICRF193 0 nM) and over 45.8 µM (ICRF193 200 nM).

Take `C[C@@H](O)[C@H]1C(=O)N2C(C(=O)O)=C(S[C@@H]3CN[C@H](C(=O)Nc4cccc(C(=O)O)c4)C3)[C@H](C)[C@H]12` [Ertapenem]: the IC50 cell viability reads like this: (ICRF193 0 nM) over 45.8 µM; (ICRF193 200 nM) over 45.8 µM.

With `CCc1cccc(CC)c1NC(=O)CN(CC(=O)O)CC(=O)O` [Etifenin], the IC50 cell viability was over 45.8 µM (ICRF193 0 nM) and over 45.8 µM (ICRF193 200 nM).

Turning to `N[C@H]1C(O)O[C@H](CO)[C@@H](O)[C@@H]1O` (stereo partly specified) [Glucosamine hydrochloride], the IC50 cell viability is, setting by setting: (ICRF193 0 nM) over 45.8 µM; (ICRF193 200 nM) over 45.8 µM.

Regarding `C[N+](C)(C)C1CCC(CC2CCC([N+](C)(C)C)CC2)CC1` (stereo unspecified) [Mebezonium Iodide], the IC50 cell viability by setting is: (ICRF193 0 nM) over 45.8 µM; (ICRF193 200 nM) over 45.8 µM.

Compound `CCOc1ccccc1C(N)=O` [2-Ethoxybenzamide] came in with an IC50 cell viability (ICRF193 0 nM) of over 45.8 µM and an IC50 cell viability (ICRF193 200 nM) of over 45.8 µM.

`Cn1c(=O)c2[nH]c(Br)nc2n(C)c1=O` [8-Bromotheophylline]: the IC50 cell viability is over 45.8 µM (ICRF193 0 nM) and over 45.8 µM (ICRF193 200 nM).

For the compound `COc1ccc(-c2noc(CC(=O)O)c2-c2ccc(OC)cc2)cc1` [Mofezolac], the IC50 cell viability runs as follows: (ICRF193 0 nM) over 45.8 µM; (ICRF193 200 nM) over 45.8 µM.

For `CC(C)CCC[C@@H](C)[C@H]1CC[C@H]2[C@@H]3CC=C4C[C@@H](O)CC[C@]4(C)[C@H]3CC[C@]12C` [Cholesterol], the IC50 cell viability by setting is: (ICRF193 0 nM) over 45.8 µM; (ICRF193 200 nM) over 45.8 µM.

In the case of `CCOc1nc2cccc(C(=O)O)c2n1Cc1ccc(-c2ccccc2-c2noc(=O)[nH]2)cc1` [Azilsartan (TAK-536)], the IC50 cell viability reads like this: (ICRF193 0 nM) over 45.8 µM; (ICRF193 200 nM) over 45.8 µM.

As for `CC1(C)OC(=O)C(OCC2CC2)=C1c1ccc(S(C)(=O)=O)cc1` [FIROCOXIB], the IC50 cell viability is, setting by setting: (ICRF193 0 nM) over 45.8 µM; (ICRF193 200 nM) over 45.8 µM.
